From ChEMBL document CHEMBL1909046, “DrugMatrix in vitro pharmacology data”

Experiments:
[1] = target: T1, Alpha-2C adrenergic receptor (Homo sapiens, UniProt P18825); assay: DRUGMATRIX: Adrenergic Alpha-2C radioligand binding (ligand: [3H] MK-912); type: cell membranes, Sf9, Membrane
T1 sequence (P18825 whole entry): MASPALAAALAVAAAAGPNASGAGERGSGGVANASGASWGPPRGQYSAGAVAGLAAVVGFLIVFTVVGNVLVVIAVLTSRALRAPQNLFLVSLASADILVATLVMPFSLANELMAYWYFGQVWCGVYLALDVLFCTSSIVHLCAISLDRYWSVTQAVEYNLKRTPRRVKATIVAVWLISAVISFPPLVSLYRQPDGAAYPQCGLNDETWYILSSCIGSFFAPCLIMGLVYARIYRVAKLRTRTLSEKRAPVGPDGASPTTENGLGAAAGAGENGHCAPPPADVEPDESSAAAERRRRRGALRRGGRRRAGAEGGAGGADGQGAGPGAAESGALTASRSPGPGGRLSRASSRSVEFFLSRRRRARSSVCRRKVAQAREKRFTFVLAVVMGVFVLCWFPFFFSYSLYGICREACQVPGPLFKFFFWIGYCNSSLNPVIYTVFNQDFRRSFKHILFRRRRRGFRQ

[2] = target: Beta-3 adrenergic receptor (Homo sapiens, UniProt P13945); assay: DRUGMATRIX: Adrenergic beta3 radioligand binding (ligand: [125I] Cyanopindolol); type: cell membranes, HEK293, Membrane; details: Not Active = under 50% inhibition at 10 µM
Beta-3 adrenergic receptor, sequence (P13945 whole entry): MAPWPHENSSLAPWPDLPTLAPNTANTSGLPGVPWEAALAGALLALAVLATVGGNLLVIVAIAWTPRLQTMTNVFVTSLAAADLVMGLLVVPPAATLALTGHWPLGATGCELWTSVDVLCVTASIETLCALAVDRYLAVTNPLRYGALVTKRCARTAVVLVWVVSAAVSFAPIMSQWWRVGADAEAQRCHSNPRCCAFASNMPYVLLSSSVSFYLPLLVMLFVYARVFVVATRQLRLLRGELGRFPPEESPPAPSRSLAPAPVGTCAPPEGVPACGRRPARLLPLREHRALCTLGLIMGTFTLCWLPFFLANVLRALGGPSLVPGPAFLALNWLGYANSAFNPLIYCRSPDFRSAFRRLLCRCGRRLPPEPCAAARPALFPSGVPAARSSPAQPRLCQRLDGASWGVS

Carbonic anhydrase 2 = Carbonic anhydrase 2 (Homo sapiens, UniProt P00918); assay: DRUGMATRIX: Carbonic Anhydrase II enzyme inhibition (substrate: 4-Nitrophenyl acetate (4-NPA)); type: tissue-based, Erythrocyte; details: erythrocyte; Not Active = under 50% inhibition at 10 µM
[3] = target: T2, Amine oxidase [flavin-containing] A (Homo sapiens, UniProt P21397); assay: DRUGMATRIX: Monoamine Oxidase MAO-A enzyme inhibition (substrate: Kynuramine); parameters: species or system BTI-TN-5B1-4; details: bti-tn-5b1-4; Not Active = under 50% inhibition at 10 µM
T2 sequence (P21397 whole entry): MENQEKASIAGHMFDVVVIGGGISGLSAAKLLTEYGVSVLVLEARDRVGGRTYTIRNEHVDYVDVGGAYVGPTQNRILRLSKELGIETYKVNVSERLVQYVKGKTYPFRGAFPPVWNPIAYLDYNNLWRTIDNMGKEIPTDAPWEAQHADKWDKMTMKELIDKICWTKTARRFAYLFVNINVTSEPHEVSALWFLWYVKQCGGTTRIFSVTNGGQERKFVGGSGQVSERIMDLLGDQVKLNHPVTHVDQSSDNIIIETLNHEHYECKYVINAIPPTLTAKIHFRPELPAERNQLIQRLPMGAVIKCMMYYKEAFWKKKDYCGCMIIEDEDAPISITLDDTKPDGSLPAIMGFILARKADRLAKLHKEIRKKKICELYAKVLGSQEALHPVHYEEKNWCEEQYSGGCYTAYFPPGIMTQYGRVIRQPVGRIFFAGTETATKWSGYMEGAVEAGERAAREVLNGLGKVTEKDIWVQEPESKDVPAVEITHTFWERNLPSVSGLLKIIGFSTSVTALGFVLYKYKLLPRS

[4] = target: T3, Muscarinic acetylcholine receptor M4 (Homo sapiens, UniProt P08173); type: cell membranes, CHO-K1, Membrane; details: cho-k1; note: in other assays of this panel Not Active means under 50% inhibition at 10 µM
T3 sequence (P08173 whole entry): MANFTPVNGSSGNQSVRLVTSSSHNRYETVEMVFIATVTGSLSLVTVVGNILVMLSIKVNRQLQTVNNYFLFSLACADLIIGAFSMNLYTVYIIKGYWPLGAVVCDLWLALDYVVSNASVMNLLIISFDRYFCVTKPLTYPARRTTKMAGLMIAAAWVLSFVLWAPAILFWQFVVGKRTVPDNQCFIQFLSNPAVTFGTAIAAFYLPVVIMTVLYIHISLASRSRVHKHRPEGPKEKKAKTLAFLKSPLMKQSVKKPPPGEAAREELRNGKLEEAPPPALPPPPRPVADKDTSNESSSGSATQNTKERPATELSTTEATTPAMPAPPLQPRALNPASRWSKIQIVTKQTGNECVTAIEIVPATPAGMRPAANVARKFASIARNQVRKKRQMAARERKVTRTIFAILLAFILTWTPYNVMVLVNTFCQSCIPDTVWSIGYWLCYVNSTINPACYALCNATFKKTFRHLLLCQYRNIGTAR

[5] = target: 5-hydroxytryptamine receptor 1B (Rattus norvegicus, UniProt P28564); type: cell membranes, Wistar, Cerebral cortex, Membrane; note: in other assays of this panel Not Active means under 50% inhibition at 10 µM
5-hydroxytryptamine receptor 1B, sequence (P28564 whole entry): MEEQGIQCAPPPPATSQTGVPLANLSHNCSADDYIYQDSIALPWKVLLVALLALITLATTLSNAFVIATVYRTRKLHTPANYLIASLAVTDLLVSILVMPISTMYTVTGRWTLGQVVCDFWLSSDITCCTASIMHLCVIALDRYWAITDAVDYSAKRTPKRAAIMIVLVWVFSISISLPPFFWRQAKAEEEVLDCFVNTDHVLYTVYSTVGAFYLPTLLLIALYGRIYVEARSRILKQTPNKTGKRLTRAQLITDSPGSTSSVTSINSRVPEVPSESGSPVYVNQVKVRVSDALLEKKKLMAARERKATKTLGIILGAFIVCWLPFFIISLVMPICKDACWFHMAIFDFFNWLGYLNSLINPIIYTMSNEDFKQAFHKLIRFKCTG

Row | Compound | IC50 ([1]; sf9) | IC50 ([2]; read-out: IC50) [nM] | Ki ([2]; read-out: Ki) [nM] | IC50 (Carbonic anhydrase 2) | IC50 [3] | IC50 [4] | IC50 [5] | IC50 ([2]; hek293) | IC50 ([1]; read-out: IC50) [nM] | Ki ([1]; read-out: Ki) [nM]
1 | CC(C)(C)NC[C@H](O)COc1cccc2c1CCCC2=O [LEVOBUNOLOL] | Not Active | 340 | 255 | Not Active | Not Active | Not Active | Not Active | – | – | –
2 | Cc1[nH]c(=O)c(C#N)cc1-c1ccncc1 [MILRINONE] | Not Active | – | – | Not Active | Not Active | Not Active | Not Active | Not Active | – | –
3 | C1CCN2C[C@@H]3C[C@@H](CN4CCCC[C@@H]34)[C@H]2C1 [SPARTEINE] | Not Active | – | – | Not Active | Not Active | Not Active | Not Active | Not Active | – | –
4 | Cc1cnc(NC(=O)C2=C(O)c3ccccc3S(=O)(=O)N2C)s1 [MELOXICAM] | Not Active | – | – | Not Active | Not Active | Not Active | Not Active | Not Active | – | –
5 | CO[C@@]12[C@H](COC(N)=O)C3=C(C(=O)C(C)=C(N)C3=O)N1C[C@@H]1N[C@@H]12 [MITOMYCIN] | Not Active | – | – | Not Active | Not Active | Not Active | Not Active | Not Active | – | –
6 | CC(Cl)(Cl)Cl [TRICHLOROETHANE] | Not Active | – | – | Not Active | Not Active | Not Active | Not Active | Not Active | – | –
7 | O=[As][O-].[Na+] [SODIUM ARSENITE] | Not Active | – | – | Not Active | Not Active | Not Active | Not Active | Not Active | – | –
8 | Cc1ccc(Cl)c(Nc2ccccc2C(=O)O)c1Cl [MECLOFENAMIC ACID] | Not Active | – | – | Not Active | Not Active | Not Active | Not Active | Not Active | – | –
9 | Cc1ccc(S(=O)(=O)NC(=O)NN2CCCCCC2)cc1 [TOLAZAMIDE] | Not Active | – | – | Not Active | Not Active | Not Active | Not Active | Not Active | – | –
10 | O=C(O)c1cc(/N=N/c2ccc(S(=O)(=O)Nc3ccccn3)cc2)ccc1O [SULFASALAZINE] | Not Active | – | – | Not Active | Not Active | Not Active | Not Active | Not Active | – | –
11 | CC(=O)O[C@]1(C(C)=O)CC[C@H]2[C@@H]3C[C@H](C)C4=CC(=O)CC[C@]4(C)[C@H]3CC[C@@]21C [MEDROXYPROGESTERONE ACETATE] | Not Active | – | – | Not Active | Not Active | Not Active | Not Active | Not Active | – | –
12 | CC[C@H](C)C(=O)O[C@H]1CCC=C2C=C[C@H](C)[C@H](CC[C@@H]3C[C@@H](O)CC(=O)O3)[C@H]21 [MEVASTATIN] | Not Active | – | – | Not Active | Not Active | Not Active | Not Active | Not Active | – | –
13 | CCN(CC)CCNC(=O)c1cc(Cl)c(N)cc1OC [METOCLOPRAMIDE] | Not Active | – | – | Not Active | Not Active | Not Active | Not Active | Not Active | – | –
14 | Cc1nnc(NS(=O)(=O)c2ccc(N)cc2)s1 [SULFAMETHIZOLE] | Not Active | – | – | Not Active | Not Active | Not Active | Not Active | Not Active | – | –
15 | CCC(C)(C)C(=O)O[C@H]1C[C@@H](C)C=C2C=C[C@H](C)[C@H](CC[C@@H]3C[C@@H](O)CC(=O)O3)[C@H]21 [SIMVASTATIN] | Not Active | – | – | Not Active | Not Active | Not Active | Not Active | Not Active | – | –
16 | CN1C(=O)OC(C)(C)C1=O [TRIMETHADIONE] | Not Active | – | – | Not Active | Not Active | Not Active | Not Active | Not Active | – | –
17 | CC[C@H](C)[C@@H](CO[C@@H](Cc1ccccc1)C(=O)N[C@@H](CCS(C)(=O)=O)C(=O)OC(C)C)NC[C@@H](N)CS | – | – | – | Not Active | Not Active | Not Active | Not Active | Not Active | 3140 | 456
18 | OC[C@@H](O)[C@@H](O)[C@H](O)[C@H](O)CO [MANNITOL] | Not Active | – | – | Not Active | Not Active | Not Active | Not Active | Not Active | – | –
19 | Cc1cn([C@H]2C=C[C@@H](CO)O2)c(=O)[nH]c1=O [STAVUDINE] | Not Active | – | – | Not Active | Not Active | Not Active | Not Active | Not Active | – | –
20 | CC1=C(/C=C/C(C)=C/C=C/C(C)=C/C(=O)O)C(C)(C)CCC1 [TRETINOIN] | Not Active | – | – | Not Active | Not Active | Not Active | Not Active | Not Active | – | –
